Results: article PMC7235863, “Benzamide Derivatives Targeting the Cell Division Protein FtsZ: Modifications of the Linker and the Benzodioxane Scaffold and Their Effects on Antimicrobial Activity” (Antibiotics, 2020)
In brackets after ≈: the same amount, converted by molar mass. Like-named read-outs stand apart in the source and are kept apart here.

Assays:
[1] = test system: MSSA ATCC 29213; experiment: MIC/MBC determination in LB broth, MSSA; assay type: cell-based, Staphylococcus aureus; conditions: for MBC / MBC/MIC / MIC: MSSA ATCC 29213
Experimental: (§1) Normal human lung fibroblasts (MRC-5) were grown in Dulbecco’s modified Eagle’s medium (DMEM) supplemented with 10% calf serum, 100 U/mL penicillin and […] streptomycin in an incubator at 5% CO2 atmosphere and 37 °C. The Gram-positive Staphylococcus aureus (methicillin-sensitive, MSSA ATCC 29213, and methicillin-resistant, MRSA ATCC 43300) and the Gram-negative Escherichia coli (ESBL, extended-spectrum beta-lactamase-positive) bacterial cells were grown in Luria-Bertani broth (LB) at 37 °C under constant shaking at 300 rpm.
(§2) The antibacterial activity was tested on both a methicillin-sensitive and a methicillin-resistant S. aureus strain, and an ESBL E. coli clinical isolate. All the compounds were dissolved at the final concentration of 20 mg/mL in dimethyl sulfoxide (DMSO) and serially diluted in LB. Fresh cell cultures were used at 10^5 cells/mL in a final volume of 2 mL. Each bacterial sample was grown with different compound concentrations that ranged from 100 to 0.1 μg/mL. […] To determine the MBC, the bacteria were then washed three times with LB, centrifuged at 900× g for 10 min at 4 °C, and the pellet resuspended in fresh LB. After overnight incubation at 37 °C, the absence of growth was confirmed by OD measurement. The presence of antibacterial activity, at any concentration tested, was established for values of absorbance < 0.1 OD600. All tests were performed in quadruplicate and for each series of experiments, both positive (no compounds) and negative (no bacteria) controls were included.

[2] = test system: MRC-5 cells; experiment: MTT cytotoxicity assay; assay type: cell-based, human; conditions: MRC-5, concentration reducing cell viability by 90%, 24-h incubation
Experimental: The compounds showing the most promising activities vs. MRSA were also assessed for their cytotoxicity on human MRC-5 cells. TD90, the concentration (µg/mL) able to reduce by 90% the viability of these cells, was determined together with the therapeutic index (TI), expressed as the ratio between TD90 and MBC values.
as §1
Compounds showing an antibacterial activity at a concentration lower than 10 μg/mL were serially diluted in DMEM and tested on MRC-5 cells by the MTT cytotoxicity assay (Sigma, St Louis, MO, USA). Cells (10^4 cells/well) were tested in a 96-well plate, in quadruplicate, using serially two-fold-diluted concentrations of the compound in 100 μL DMEM medium. After a 24-h incubation, the compound was removed, and the cells were overlaid with 1 mg/mL MTT in 100 μL serum-free DMEM for 3 h at 37 °C. The MTT solution was then replaced with DMSO for 10 min, and the absorbance was measured at 570 nm. The percentage of cytotoxicity was calculated by the formula [100 − (sample OD/untreated cells OD) × 100]. The compound concentration reducing cell viability by 90% was defined as the TD90 cytotoxic dose. The “therapeutic index” (TI) was also determined and defined as the ratio between TD90 and the MBC values.

[3] = test system: E. coli N43; experiment: Broth microdilution MIC, efflux-defective E. coli N43; assay type: cell-based, Escherichia coli
Experimental: (§3) We thus tested 1–8 and III initially on the reference sensitive E. coli ATCC 25922 and on the extended-spectrum of beta-lactamase-positive (ESBL) E. coli, as Gram-negative bacteria. Moreover, in order to evaluate the susceptibility of this series of compounds to the efflux pump AcrAB, we employed also the above-mentioned E. coli N43, which is the knockout of the AcrAB cell membrane pump.
(§4) Antibacterial activities of compounds were determined by the broth microdilution method against MDRSA 11.7, MDRSA 12.1 and E. coli N43 following the European Committee on Antimicrobial Susceptibility Testing (EUCAST) recommendations and Clinical and Laboratory Standards Institute (CLSI) guidelines. Strains MDRSA ST-11.7 and ST-12.1 were obtained through the interlaboratory control organized by the EU Reference Laboratory—Antimicrobial Resistance. Only data on their resistance to antibiotics are known, but other data are not available.
(§5) Bacterial suspension of specific bacterial strain equivalent to 0.5 McFarland turbidity standard was diluted with cation-adjusted Mueller Hinton broth with TES (Thermo Fisher Scientific), to obtain a final inoculum of 10^5 CFU/mL. Compounds dissolved in DMSO and inoculum were mixed together and incubated for 20 h at 37 °C. After incubation, the minimal inhibitory concentration (MIC) values were determined by visual inspection as the lowest dilution of compounds showing no turbidity. Tetracycline was used as a positive control on every assay plate.

[4] = test system: MRSA ATCC 43300; experiment: MIC/MBC determination in LB broth, MRSA; assay type: cell-based, Staphylococcus aureus
Experimental: as §1, §2

[5] = test system: E. coli ATCC 25922; experiment: MIC on reference sensitive E. coli; assay type: cell-based, Escherichia coli
Excerpt: as §3

[6] = test system: MDRSA 11.7; experiment: Broth microdilution MIC, MDRSA 11.7; assay type: cell-based, Staphylococcus aureus
Experimental: (§6) Antimicrobial activity of 1–8 was evaluated on both Gram-positive (Table 3) and Gram-negative (Table 4) species. As a continuation of our previous studies, considering the Gram-positive S. aureus, we chose a methicillin-sensitive S. aureus (MSSA, ATCC 29213), a methicillin-resistant S. aureus (MRSA, ATCC 43300) and two clinical isolates of S. aureus showing multi-drug resistance (MDRSA).
as §4, §5

[7] = test system: ESBL E. coli; experiment: MIC in LB broth, ESBL E. coli clinical isolate; assay type: cell-based, Escherichia coli
Experimental: as §3, §1, §2

[8] = test system: MDRSA 12.1; experiment: Broth microdilution MIC, MDRSA 12.1; assay type: cell-based, Staphylococcus aureus
Experimental: as §6, §4, §5

[9] = test system: Methicillin Sensitive S. aureus; conditions: cited from earlier work; for MIC vs. MSSA: chromanes ref 22
[10] = test system: E. coli AcrAB–; conditions: ref 10 (Z2, Z3), 11 (TXY436), 12 (I, II); cited from earlier work
[11] = Staphylococcus aureus, read-out: MBC
[12] = Staphylococcus aureus, read-out: MIC
[13] = Escherichia coli, read-out: MIC

Compound | MBC/MIC [1] | MBC/MIC [4] | MBC [1, 11] [µg/mL] | MIC [1, 12] [µg/mL] | MBC [4, 11] [µg/mL] | MIC [4, 12] [µg/mL] | MIC ([5]; Escherichia coli, ATCC25922) [µg/mL] | MIC [7, 13] [µg/mL] | MIC ([3]; Escherichia coli, N43) [µg/mL] | MIC [6, 12] [µg/mL] | MIC [8, 12] [µg/mL] | further results
3-(1,4-benzodithiane-2-yl)-2,6-difluorobenzamide [Compound 5] | 2 | 2 |  |  |  |  |  |  |  |  |  | MBC [1]: 10 µg/mL; MIC [1]: 5 µg/mL; TD90 [2]: 200 µg/mL; MIC ([3]; E. coli N43 (AcrAB knockout)): >128 µg/mL; MBC [4]: 10 µg/mL; MIC [4]: 5 µg/mL; MIC ([5]; E. coli ATCC 25922): >100 µg/mL; MIC [6]: 8 µg/mL; MIC [7]: >100 µg/mL; MIC [8]: 8 µg/mL
3-(1,4-benzoxathiane-3-yl)-2,6-difluorobenzamide [Compound 3] | 1 | 1 |  |  |  |  |  |  |  |  |  | MBC [1]: 20 µg/mL; MIC [1]: 20 µg/mL; TD90 [2]: 200 µg/mL; MIC ([3]; E. coli N43 (AcrAB knockout)): 128 µg/mL; MBC [4]: 20 µg/mL; MIC [4]: 20 µg/mL; MIC ([5]; E. coli ATCC 25922): >100 µg/mL; MIC [6]: 32 µg/mL; MIC [7]: >100 µg/mL; MIC [8]: 32 µg/mL
NC(=O)c1c(F)ccc(OCC2CS(=O)(=O)c3ccccc3O2)c1F (centres unmarked) [Compound 2] |  |  | > 100 | > 100 | > 100 | > 100 | > 100 | > 100 |  |  |  | 
NC(=O)c1c(F)ccc(OCC2COc3ccccc3S2(=O)=O)c1F (centres unmarked) [Compound 4] |  |  | > 100 | > 100 | > 100 | > 100 | > 100 | > 100 |  |  |  | 
NC(=O)c1c(F)ccc(OCCC2CSc3ccccc3O2)c1F (centres unmarked) [Compound 6] | 2 | 2 | 5 (≈ 14.2 µM) | 2.5 (≈ 7.11 µM) | 5 (≈ 14.2 µM) | 2.5 (≈ 7.11 µM) | > 100 | > 100 | > 128 | 8 (≈ 22.8 µM) | 4 (≈ 11.4 µM) | 
NC(=O)c1c(F)ccc(OCCC2COc3ccccc3O2)c1F (centres unmarked) [Compound 7] | 1 | 1 | 5 (≈ 14.9 µM) | 5 (≈ 14.9 µM) | 5 (≈ 14.9 µM) | 5 (≈ 14.9 µM) | > 100 | > 100 | 8 (≈ 23.9 µM) | 4 (≈ 11.9 µM) | 4 (≈ 11.9 µM) | TD90 [2]: 380 µg/mL
NC(=O)c1c(F)ccc(OCCCC2COc3ccccc3O2)c1F (centres unmarked) [Compound 8] | 10 | 10 | 100 (≈ 286 µM) | 10 (≈ 28.6 µM) | 100 (≈ 286 µM) | 10 (≈ 28.6 µM) | > 100 | > 100 | > 128 | 32 (≈ 91.6 µM) | 16 (≈ 45.8 µM) | 
CCN(CC)CCNc1nc(/C=C/c2ccc(Cl)cc2)nc2cc3ccccc3cc12 [Compound Z3] |  |  |  |  |  |  |  |  |  |  |  | MIC ([9]; Methicillin Sensitive S. aureus, ref 10 (Z2, Z3), 11 (TXY436), 12 (I, II)): 2.1 µg/mL (≈ 4.87 µM); MIC [10]: 4 µg/mL (≈ 9.28 µM)
NC(=O)c1c(F)ccc(OCC2COc3ccccc3O2)c1F (centres unmarked) [III, reference compound] | 16 | 16 | 80 (≈ 249 µM) | 5 (≈ 15.6 µM) | 80 (≈ 249 µM) | 5 (≈ 15.6 µM) | > 100 | > 100 | > 128 | 16 (≈ 49.8 µM) | 8 (≈ 24.9 µM) | MBC/MIC ratios ([1]; S. aureus, as summarised in the text from Table 3): 16
NC(=O)c1c(F)ccc(OCC2CCc3ccccc3O2)c1F (centres unmarked) [IV] |  |  |  |  |  |  |  |  |  |  |  | MIC vs. MSSA [9]: 5 µg/mL (≈ 15.7 µM)
NC(=O)c1c(F)ccc(OCC2COc3ccccc3C2)c1F (centres unmarked) [V] |  |  |  |  |  |  |  |  |  |  |  | MIC vs. MSSA [9]: 100 µg/mL (≈ 313 µM)
